Read-outs that look alike come from different tables or passages of the source.
Key:
[1] = Lapatinib pharmacokinetics and uptake in rat cerebrospinal fluid (CSF); type: in vivo, rats; conditions: for MRT last: read-out: MRT0-t
Description: This study was conducted on rats, which are a promising model to predict P-gp-based drug-drug interactions at the human BBB [15]. The animals were allowed to acclimate for one week before the beginning of the experiments. Adult male Wistar-strain rats (weight 470–525 g) were used in the study. The animals were maintained under standard breeding conditions with a 12/12 h light-dark cycle (lights on at 6.00 a.m., lights off at 6.00 p.m.) at constant room temperature (23 ± 2 °C), relative humidity (55 ± 10%) and ad libitum access to food and water. The experimental protocol for this study was reviewed and approved by the Local Ethics Committee. To obtain consistent data, the study was based on the required minimum number of animals and observation time. […] Three rats were used at each time point (n = 3). In total, the research was conducted on 66 animals (n = 33 in the experimental group and n = 33 in the control group).
Elacridar was freshly dissolved in a vehicle at an initial concentration of 20 mg/mL. […] A volume of 80 μL of blood was collected from each rat by cutting off a piece of its tail. The blood samples were collected into heparinized test tubes at the following time points: before treatment (time 0), 5 min, 30, min, and 1, 2, 3, 4, 6, 8, 12, and 24 h after administration of the drugs, and they were immediately centrifuged at 2880 g for 10 min at 4 °C. The anaesthetized rats (anaesthetized by intramuscular administration of 50 mg/kg ketamine and 10 mg/kg xylazine) were prepared for cisterna magna puncture. The hair over the puncture was removed and the skin was disinfected with alcohol. The animals were placed in a recumbent position with an elevated rear part of the body. The animals’ heads were slightly flexed and immobilized with the operator’s left hand. The space between the occiput rostrally and the atlas (C1) of the spinal column caudally was gently palpated with the left thumb. A 0.7 × 20 G needle with polyethylene tubing (Terumo Poland, Warsaw, Poland) was gently inserted at an approximate angle of 80–90° through the skin with the operator’s right hand into the midsagittal region. The moment that dura mater perforation was perceptible, a small amount of CSF was found in the needle tubing. To sample additional CSF, a 1 mL insulin syringe (Becton Dickinson, Warsaw, Poland) was used to collect 80–120 μL of CSF by very gentle aspiration. Only clear CSF was collected for further analysis. […] The animals’ brains were immediately dissected, washed in 0.9% NaCl and divided along the longitudinal axis. One of the brain hemispheres was again rinsed three times with 5 mL of 0.9% NaCl, weighed and homogenized with 0.9% NaCl (4 mL per 1 g of BT) in an Ultra-Turrax homogenizer (Witko, Łódź, Poland). The homogenate was then centrifuged at 4500 g for 10 min. All samples of the rat BP, CSF, and BT homogenate supernatant were stored at −80 °C until analysis.
The chromatographic analysis was conducted using a 1260 Infinity system (Agilent Technologies, Santa Clara, USA) equipped with a Kinetex® C18 column (50 × 4.6 mm, 2.6 μm, Phenomenex, Torrance, USA), which was maintained at 35 °C. The mobile phase consisted of 0.1% formic acid (v/v) in water with 5 mM ammonium formate (solvent A) and acetonitrile with 10% phase A (v/v, solvent B). The analyte and internal standard (IS, erlotinib) were eluted using a gradient run of 10 min as follows: 95% A at 0–2 min; 95%–5% A at 2–4 min; 5% A at 4–5 min; 5%–95% A at 5–6 min; 95% A at 6–10 min. The flow rate and injection volume were set at 0.7 mL/min and 10 μL, respectively. The needle was washed for 30 s in a mixture of acetonitrile, methanol, isopropanol, water, and formic acid (50:20:15:15:0.25, v/v/v/v/v).

[2] = parameters: method as in PMID 19056914; conditions: cited from earlier work
[3] = cerebrospinal fluid, lapatinib 100 mg/kg oral + 5 mg/kg elacridar (IE+L)
[4] = cerebrospinal fluid, lapatinib 100 mg/kg oral alone (IIL)
[5] = male, Wistar, rat, cerebrospinal fluid (CSF), po, 100 mg/kg, lapatinib p.o. 100 mg/kg alone, read-out: Clapatinib in CSF, S (medium value)
[6] = male, Wistar, rat, cerebrospinal fluid (CSF), po, 100 mg/kg, lapatinib p.o. 100 mg/kg alone, read-out: Clapatinib in CSF, single rat
[7] = male, Wistar, rat, cerebrospinal fluid, oral, lapatinib 100 mg/kg + elacridar, read-out: Clapatinib in CSF, S
[8] = male, Wistar, rat, cerebrospinal fluid, oral, lapatinib 100 mg/kg + elacridar, read-out: Clapatinib in CSF, single rat
[9] = male, Wistar, rat, cerebrospinal fluid, po, 100 mg/kg, cerebrospinal fluid, lapatinib 100 mg/kg oral + 5 mg/kg elacridar (IE+L)
[10] = male, Wistar, rat, cerebrospinal fluid, po, 100 mg/kg, lapatinib 100 mg/kg oral alone (IIL)

AUC0-∞ increase by elacridar ([1]; CSF): 1.5 fold
Cmax increase in IE+L vs control ([1]; CSF): 2.4 fold
Kp decrease in IL+E group vs control ([1]; CSF): 42.9%
t0.5 longer in the presence of elacridar ([1]; CSF): 2.6 times
AUC0-t elevated in IE+L ([1]; CSF, IE+L vs IIL group): 61.2%
Cmax increase with elacridar ([1]; CSF, IE+L vs IIL group): 136.4%
AUMC0-t [1, 3]: 1620.02 ng × h^2/mL
AUMC0-∞ [1, 3]: 2725.51 ng × h^2/mL
AUMC0-t [1, 4]: 1257.21 ng × h^2/mL
AUMC0-∞ [1, 4]: 1767.90 ng × h^2/mL
Kp ([1]; male, Wistar, rat, CSF / plasma, oral, 100 mg/kg, IIL group, read-out: Cmax,CSF/Cmax,BP ratio): 0.012
Kp ([1]; male, Wistar, rat, CSF / plasma, oral, with elacridar 5 mg/kg intraperitoneally, 30 min before lapatinib, IE+L group, read-out: Cmax,CSF/Cmax,BP ratio): 0.026
concentration at 0.25 h ([1]; male, Wistar, rat, cerebrospinal fluid (CSF), po, 100 mg/kg, lapatinib p.o. 100 mg/kg alone, 0.25 h, read-out: Clapatinib in CSF, S (medium value)): 3.73 ng/mL
concentration at 1 h [1, 5]: 38.5 ng/mL
concentration at 1 h [1, 6]: 38.5 ng/mL
concentration at 2 h [1, 5]: 10.8 ng/mL
concentration at 2 h [1, 6]: 10.8 ng/mL
concentration at 3 h [1, 5]: 12.2 ng/mL
concentration at 3 h [1, 6]: 9.49 ng/mL
concentration at 4 h [1, 5]: 13.8 ng/mL
concentration at 4 h [1, 6]: 13.8 ng/mL
concentration at 6 h [1, 5]: 26.9 ng/mL
concentration at 6 h [1, 6]: 26.9 ng/mL
concentration at 8 h [1, 5]: 24.4 ng/mL
concentration at 8 h [1, 6]: 24.4 ng/mL
concentration at 12 h [1, 5]: 7.23 ng/mL
concentration at 0.5 h ([1]; male, Wistar, rat, cerebrospinal fluid, oral, lapatinib 100 mg/kg + elacridar, 0.5 h, read-out: Clapatinib in CSF, S): 40.7 ng/mL
concentration at 1 h [1, 7]: 30 ng/mL
concentration at 2 h [1, 7]: 75.7 ng/mL
concentration at 3 h [1, 7]: 51.2 ng/mL
concentration at 3 h [1, 8]: 45.6 ng/mL
concentration at 4 h [1, 7]: 91 ng/mL
concentration at 4 h [1, 8]: 91 ng/mL
concentration at 6 h [1, 7]: 4.27 ng/mL
concentration at 6 h [1, 8]: 4.27 ng/mL
concentration at 8 h [1, 7]: 1.03 ng/mL
concentration at 8 h [1, 8]: 1.03 ng/mL
concentration at 12 h [1, 7]: 2.62 ng/mL
concentration at 12 h [1, 8]: 2.62 ng/mL
concentration at 24 h [1, 7]: 2.84 ng/mL
concentration at 24 h [1, 8]: 2.84 ng/mL
k el ([1]; male, Wistar, rat, cerebrospinal fluid, po, 100 mg/kg): 6.39e-05 s⁻¹
AUC(0-inf) [1, 9]: 387 ng·h/mL
AUC(0-t) [1, 9]: 356 ng·h/mL
Cmax [1, 9]: 91 ng/mL
Tmax [1, 9]: 4 h
MRT last [1, 9]: 4.55 h
MRT last ([1]; male, Wistar, rat, cerebrospinal fluid, po, 100 mg/kg, cerebrospinal fluid, lapatinib 100 mg/kg oral alone (IIL)): 5.7 h
AUC(0-inf) [1, 10]: 252 ng·h/mL
AUC(0-t) [1, 10]: 221 ng·h/mL
Cmax [1, 10]: 38.5 ng/mL
Tmax [1, 10]: 1 h
Kp ([1]; male, Wistar, rat, cerebrospinal fluid, po, 100 mg/kg, read-out: Kp (tissue-to-plasma partition coefficient, AUC0-∞-tissue/AUC0-∞-plasma)): 0.007
Compound: CS(=O)(=O)CCNCc1ccc(-c2ccc3ncnc(Nc4ccc(OCc5cccc(F)c5)c(Cl)c4)c3c2)o1 [lapatinib, N-{3-Chloro-4-[(3-fluorobenzyl)oxy]phenyl}-6-[5-({[2-(methylsulfonyl)ethyl]amino}methyl)-2-furyl]-4-quinazolinamine]
Kp,BT ([2]; WT mice, 24-h intravenous administration): 0.04
Kp,BT times greater than in WT mice ([2]; mdr1a/b(−/−)/bcrp(−/−) mice): 40 times

Reference: publication PMC7211195 (Investigational New Drugs, 2019)
